According to ChEMBL document CHEMBL4665808, “Krisynomycins, Imipenem Potentiators against Methicillin-Resistant Staphylococcus aureus, Produced by Streptomyces canus” (2020):
Values after ≈ are worked out from the molar mass of the structure shown.

What was measured:
Type in all cases: functional
[1] = test system: Staphylococcus aureus; assay: Potentiation of imipenem-induced activity antibacterial against methicillin-resistance Staphylococcus aureus MB5393 in presence of 4 ug/ml imipenem by broth dilution method
[2] = test system: Staphylococcus aureus; assay: Potentiation of imipenem-induced activity antibacterial against methicillin-resistance Staphylococcus aureus MB5393 in presence of 1 ug/ml imipenem by broth dilution method
[3] = test system: Staphylococcus aureus; assay: Antibacterial against methicillin-resistance Staphylococcus aureus MB5393 by broth dilution method
[4] = test system: Staphylococcus aureus; assay: Potentiation of imipenem-induced activity antibacterial against methicillin-resistance Staphylococcus aureus MB5393 in presence of 2 ug/ml imipenem by broth dilution method

`CC(C)=CCc1ccc(Cl)c2[nH]cc(C[C@@H]3NC(=O)[C@H](Cc4c[nH]c5c(Cl)cccc45)NC(=O)[C@@H]4CCCN4C(=O)[C@@H](CS(=O)(=O)O)NC(=O)[C@@H](NC(=O)[C@@H](NC(=O)[C@H](C)NC(=O)CC(=O)O)C(C)C)COC(=O)[C@H](CO)NC(=O)[C@@H](CC(C)C)NC(=O)[C@@H](C(C)C)NC3=O)c12` gave an MIC [1] of 0.25 µg/mL, an MIC [2] of 0.5 µg/mL and an MIC [3] of 16 µg/mL (≈ 11.4 µM). The MIC [4] was 0.5 µg/mL.

For `CC(C)=CCc1cccc2[nH]cc(C[C@@H]3NC(=O)[C@H](Cc4c[nH]c5ccccc45)NC(=O)[C@@H]4CCCN4C(=O)[C@@H](CS(=O)(=O)O)NC(=O)[C@@H](NC(=O)[C@@H](NC(=O)[C@H](C)NC(=O)CC(=O)O)C(C)C)COC(=O)[C@H](CO)NC(=O)[C@@H](CC(C)C)NC(=O)[C@@H](C(C)C)NC3=O)c12`, the MIC [1] was 8 µg/mL, the MIC [2] was 16 µg/mL and the MIC [3] was over 128 µg/mL. It also gave an MIC [4] of 16 µg/mL.

Work on `CC(C)=CCc1cccc2[nH]cc(C[C@@H]3NC(=O)[C@H](Cc4c[nH]c5c(Cl)cccc45)NC(=O)[C@@H]4CCCN4C(=O)[C@@H](CS(=O)(=O)O)NC(=O)[C@@H](NC(=O)[C@@H](NC(=O)[C@H](C)NC(=O)CC(=O)O)C(C)C)COC(=O)[C@H](CO)NC(=O)[C@@H](CC(C)C)NC(=O)[C@@H](C(C)C)NC3=O)c12` yielded an MIC [1] of 2 µg/mL, an MIC [2] of 4 µg/mL and an MIC [3] of over 128 µg/mL. It also gave an MIC [4] of 4 µg/mL.

With `C[C@@H](O)[C@H]1C(=O)N2C(C(=O)O)=C(SCCNC=N)C[C@H]12` [IMIPENEM ANHYDROUS] the MIC [3] was 16 µg/mL (≈ 53.4 µM).
